This is an account of results in patent publication US8883410B2, “Method for determining the stability of organic methyleneamines in the presence of semicarbazide-sensitive amine oxidase” (Sanofi, priority 2007, dated 2014).

The structures appear in SMILES notation.

This data set deals with T1, human SSAO, full-length, C-terminal 6xHIS tag (Homo sapiens, UniProt Q16853).
T1 construct: expressed in transfected cells; cell lysate
T1 sequence (Q16853 1-763): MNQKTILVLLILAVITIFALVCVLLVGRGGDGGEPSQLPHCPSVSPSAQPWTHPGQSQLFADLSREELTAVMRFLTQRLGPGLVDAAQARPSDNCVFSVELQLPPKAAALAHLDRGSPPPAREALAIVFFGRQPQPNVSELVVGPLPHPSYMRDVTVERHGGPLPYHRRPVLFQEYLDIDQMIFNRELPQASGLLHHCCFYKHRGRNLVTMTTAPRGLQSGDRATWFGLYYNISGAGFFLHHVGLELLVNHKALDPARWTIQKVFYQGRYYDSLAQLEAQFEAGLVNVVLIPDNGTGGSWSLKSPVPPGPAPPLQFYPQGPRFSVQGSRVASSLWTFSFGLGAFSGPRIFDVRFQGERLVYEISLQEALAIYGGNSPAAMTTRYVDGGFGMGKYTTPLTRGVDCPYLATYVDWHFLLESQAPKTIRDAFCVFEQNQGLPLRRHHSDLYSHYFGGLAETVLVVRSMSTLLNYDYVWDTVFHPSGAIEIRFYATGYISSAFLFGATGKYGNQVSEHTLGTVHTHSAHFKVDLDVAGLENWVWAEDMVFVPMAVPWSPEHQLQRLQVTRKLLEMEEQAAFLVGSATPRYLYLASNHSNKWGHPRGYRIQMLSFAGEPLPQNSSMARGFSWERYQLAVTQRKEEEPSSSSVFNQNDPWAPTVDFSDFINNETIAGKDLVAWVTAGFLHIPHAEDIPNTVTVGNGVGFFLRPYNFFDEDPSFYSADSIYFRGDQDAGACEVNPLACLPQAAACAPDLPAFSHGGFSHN
In words: Benzylamine stability in lysate of cells expressing full-length SSAO with C-terminal 6xHIS tag, LC/MS/MS. It counts as in vitro ADME. How it is done:
The expression constructs were prepared by cloning these PCR products into the pCDNA5-FRT-To-DEST vector (Invitrogen, Gateway System™). The forward and reverse DNA sequence of each construct was confirmed including expressed sequences and at least 100 base pairs either side of this. Stable cell lines for Flp-In CHO, Flp-In CHO T-Rex, and Flp-In HEK 293 (Invitrogen, Flp-In system™) were generated using these 6 constructs according to manufacturer's instructions. Cells were co-transfected with the regulatory vector, pOG44, and each of the pCDNA5-FRT-To-DEST constructs using Lipfectamine (Invitrogen) according to manufacturer's instructions. Thus, 18 cell lines were generated: CHO Flp-In full-length SSAO; CHO Flp-In full-length SSAO with C-terminal 6×HIS tag; CHO Flp-In T1 SSAO; CHO Flp-In T1 SSAO with C-terminal 6×HIS tag; CHO Flp-In T2 SSAO; CHO Flp-In T2 SSAO with C-terminal 6×HIS tag; CHO T-Rex Flp-In full-length SSAO; CHO T-Rex Flp-In full-length SSAO with C-terminal 6×HIS tag; CHO T-Rex Flp-In T1 SSAO; CHO T-Rex Flp-In T1 SSAO with C-terminal 6×HIS tag; CHO T-Rex Flp-In T2 SSAO; CHO Flp-In T2 SSAO with C-terminal 6×HIS tag; HEK 293 Flp-In full-length SSAO; HEK 293 Flp-In full-length SSAO with C-terminal 6×HIS tag; HEK 293 Flp-In T1 SSAO; HEK 293 Flp-In T1 SSAO with C-terminal 6×HIS tag; HEK 293 Flp-In T2 SSAO; HEK 293 Flp-In T2 SSAO with C-terminal 6×HIS tag.
Adherent CHO cells were cultured at 37° C., 5% CO2 in media containing Ham's F12, 10% fetal bovine serum, 2 mM L-glutamine, 1% Penicillin/Streptomycin, 300 μM hygromycin B. Adherent HEK 293 cells were cultured at 37° C., 5% CO2 in D-MEM (high glucose), 10% fetal bovine serum, 2 mM L-glutamine, and 200 μM hygromycin B. Stable transformants were identified by loss of zeocin resistance. Once the cells were 80% confluent, SSAO expression was induced by the addition of Tetracycline to 1 μg/mL. Following 18 hours, the cells were harvested using a trypsin treatment of 3 minutes, at room temperature. Cells were washed 3 times in phosphate buffered saline before flash freezing in liquid nitrogen.
For the preparation of cell lysate for activity testing, frozen cell pellets were resuspended in lysate buffer containing 10 mM Tris-HCl (pH 7.2), 150 mM NaCl, 1.5 mM MgCl2, 1% v/v NP-40 and incubated for 15 minutes on ice. Lysate was cleared by centrifugation 800×g for 10 minutes, 4° C. and stored in aliquots at −80° C. until use. Proteins were determined using Pierce Coomassie Protein Reagent, according to manufacturer's instructions.
For each assay run, 1 mL of cell lysate (1.5 mg/mL protein) was mixed with benzylamine to 2000 ng/mL final concentration. At each corresponding time point, […] the incubation mixture was transferred to a microcentrifuge tube (1.7 mL) and mixed with 50 μL of acetonitrile. The tubes were vortex mixed briefly to ensure complete mixing and then centrifuged at 10,000×g for 5 minutes. The supernatant was removed and 50 μL was transferred to an autosampler vial and mixed with 50 μL of water before LC/MS/MS analysis. Benzylamine remaining in the lysate was analyzed with LC/MS/MS method.
LC/MS/MS analysis was performed with a PE Sciex API 3000 mass spectrometer under the following conditions listed below and in Tables 1 and 2: […]

Regarding `NCc1ccccc1` [Benzylamine], the “Benzylamine Remaining (%)” value amounted to 100% (CHO Flp-In T-Rex lysate, 0 min); 94% (CHO Flp-In T-Rex lysate, 10 min); 59% (CHO Flp-In T-Rex lysate, 2 h); 100% (CHO Flp-In lysate, 0 min); 101% (CHO Flp-In lysate, 10 min); 73% (CHO Flp-In lysate, 2 h). The “Benzylamine Remaining (%)” value is, setting by setting: (HEK293 lysate, 0 min) 100%; (HEK293 lysate, 10 min) 105%; (HEK293 lysate, 2 h) 98%.
